Assay results: the NIST ThermoML archive (doi:10.1016/j.jct.2015.12.017)
Values joined by “and” are separate entries in the source; they are usually repeats but may differ in a detail not shown here. Equal entries are not always repeated.

Assay: molar heat capacity at constant pressure
Details: 101.33 kPa, Small sample (50 mg) DSC

O=P([O-])([O-])[O-].[Co+2].[Cs+] [cesium cobalt(II) phosphate]
Details	molar heat capacity at constant pressure
451.9 K, Crystal 3	167.95 J/K/mol
454.4 K, Crystal 3	167.95 J/K/mol
456.9 K, Crystal 3	168.78 J/K/mol
459.4 K, Crystal 3	169.62 J/K/mol
460 K, Crystal 3	169.45 J/K/mol
461.9 K, Crystal 3	170.45 J/K/mol
464.4 K, Crystal 3	170.45 J/K/mol
466.9 K, Crystal 3	171.28 J/K/mol
469.4 K, Crystal 3	172.11 J/K/mol
470 K, Crystal 3	172.44 J/K/mol
471.9 K, Crystal 3	172.94 J/K/mol
474.4 K, Crystal 3	173.77 J/K/mol
476.9 K, Crystal 3	174.6 J/K/mol
479.4 K, Crystal 3	176.27 J/K/mol
480 K, Crystal 3	175.02 J/K/mol
481.9 K, Crystal 3	182.92 J/K/mol
484.4 K, Crystal 3	205.37 J/K/mol
486.9 K, Crystal 2	241.12 J/K/mol and 177.1 J/K/mol
486.9 K, Crystal 3	177.1 J/K/mol and 241.12 J/K/mol
489.8 K, Crystal 2	196.22 J/K/mol
490 K, Crystal 2	176.68 J/K/mol
491.9 K, Crystal 2	182.09 J/K/mol
494.4 K, Crystal 2	177.93 J/K/mol
496.9 K, Crystal 2	177.1 J/K/mol
499.4 K, Crystal 2	177.93 J/K/mol
500 K, Crystal 2	177.51 J/K/mol
501.9 K, Crystal 2	178.76 J/K/mol
504.4 K, Crystal 2	181.26 J/K/mol
506.9 K, Crystal 2	185.41 J/K/mol
509.4 K, Crystal 2	192.06 J/K/mol
510 K, Crystal 2	177.51 J/K/mol
511.6 K, Crystal 2	215.34 J/K/mol
514.4 K, Crystal 1	253.59 J/K/mol and 177.02 J/K/mol
514.4 K, Crystal 2	253.59 J/K/mol and 177.76 J/K/mol
517.3 K, Crystal 1	198.72 J/K/mol
518.6 K, Crystal 1	188.74 J/K/mol
520 K, Crystal 1	177.02 J/K/mol
520.2 K, Crystal 1	184.58 J/K/mol
523.1 K, Crystal 1	181.26 J/K/mol
526.9 K, Crystal 1	178.76 J/K/mol
529.4 K, Crystal 1	177.93 J/K/mol
530 K, Crystal 1	177.02 J/K/mol
531.9 K, Crystal 1	177.1 J/K/mol
534.4 K, Crystal 1	177.1 J/K/mol
536.9 K, Crystal 1	177.1 J/K/mol
539.4 K, Crystal 1	177.1 J/K/mol
540 K, Crystal 1	177.02 J/K/mol
541.9 K, Crystal 1	177.1 J/K/mol
544.4 K, Crystal 1	177.1 J/K/mol
546.9 K, Crystal 1	177.1 J/K/mol
549.4 K, Crystal 1	177.1 J/K/mol
550 K, Crystal 1	177.02 J/K/mol
551.9 K, Crystal 1	177.1 J/K/mol
554.4 K, Crystal 1	177.1 J/K/mol
556.9 K, Crystal 1	177.1 J/K/mol
559.4 K, Crystal 1	177.1 J/K/mol
560 K, Crystal 1	177.02 J/K/mol
561.9 K, Crystal 1	177.1 J/K/mol
564.4 K, Crystal 1	177.1 J/K/mol
566.9 K, Crystal 1	177.1 J/K/mol
569.4 K, Crystal 1	177.1 J/K/mol
570 K, Crystal 1	177.02 J/K/mol
571.9 K, Crystal 1	177.1 J/K/mol
574.4 K, Crystal 1	177.1 J/K/mol
576.9 K, Crystal 1	177.1 J/K/mol
579.4 K, Crystal 1	177.1 J/K/mol
580 K, Crystal 1	177.02 J/K/mol
581.9 K, Crystal 1	177.1 J/K/mol
584.4 K, Crystal 1	177.1 J/K/mol
586.9 K, Crystal 1	177.1 J/K/mol
589.4 K, Crystal 1	177.1 J/K/mol
590 K, Crystal 1	177.02 J/K/mol
591.9 K, Crystal 1	177.1 J/K/mol
594.4 K, Crystal 1	177.1 J/K/mol
596.9 K, Crystal 1	177.1 J/K/mol
599.4 K, Crystal 1	177.1 J/K/mol
600 K, Crystal 1	177.02 J/K/mol
601.9 K, Crystal 1	177.1 J/K/mol
604.4 K, Crystal 1	177.1 J/K/mol
606.9 K, Crystal 1	177.1 J/K/mol
609.4 K, Crystal 1	177.1 J/K/mol
610 K, Crystal 1	177.02 J/K/mol
611.9 K, Crystal 1	177.93 J/K/mol
614.4 K, Crystal 1	177.93 J/K/mol
616.9 K, Crystal 1	177.93 J/K/mol
619.4 K, Crystal 1	177.93 J/K/mol
620 K, Crystal 1	177.02 J/K/mol
621.9 K, Crystal 1	177.93 J/K/mol
624.4 K, Crystal 1	177.93 J/K/mol
626.9 K, Crystal 1	177.93 J/K/mol
629.4 K, Crystal 1	177.93 J/K/mol
630 K, Crystal 1	177.02 J/K/mol
631.9 K, Crystal 1	177.93 J/K/mol
634.4 K, Crystal 1	177.93 J/K/mol
636.9 K, Crystal 1	177.93 J/K/mol
639.4 K, Crystal 1	177.93 J/K/mol
640 K, Crystal 1	177.02 J/K/mol
641.9 K, Crystal 1	177.93 J/K/mol
644.4 K, Crystal 1	177.93 J/K/mol
646.9 K, Crystal 1	177.93 J/K/mol
649.4 K, Crystal 1	177.93 J/K/mol
650 K, Crystal 1	177.02 J/K/mol
